Reference: US11331354B2, “Fecal virome and therapeutic efficacy of fecal microbiota transplantation” (priority 2018, dated 2022)

Columns and labels:
[1] = test system: Clostridium difficile infection; assay: Randomised controlled trial substudy of FMT versus vancomycin in patients with CDI: clinical outcome (symptoms, stool C. difficile toxin); type: in vivo, human
Experimental: The current study was a substudy from a randomised controlled trial (RCT) of FMT versus vancomycin for patients with CDI. Consecutive CDI subjects enrolled into this RCT were invited to participate in a substudy of assessment of fecal microbiota. Patients were included if they had three or more loose or watery stools per day for at least two consecutive days, or eight or more soft or loose stools in 48 hours, and a positive stool test for C. difficile based on a two-step testing algorithm in the hospital, a positive GDH (glutamate dehydrogenase) screening test followed by a positive PCR test of C. difficile. A total of 24 subjects with CDI and 20 healthy household controls were recruited, and stool samples at baseline were obtained for analyses of virome and bacterial microbiome. Among them, 14 CDI subjects consented to have stool samples collected serially after treatment for microbiome analysis. Nine CDI subjects were treated with FMT and five were treated with vancomycin, and they were followed up at baseline and weeks 2, 4, 10 and 16 after treatment (FIG. 6). One patient FMT6 had recurrent CDI. This patient had five previous episodes of CDI prior to FMT. Subjects in the FMT group received 5 days of vancomycin followed by donor-infused stool via nasojejunal route, and those who had standard therapy (STD) received oral vancomycin 500 mg four times per day for 10 days. A computer-generated randomisation schedule was used to assign patients to the treatment sequences. All patients kept a stool diary and were questioned about stool frequency and consistency and medication use.
Treatment response was defined as an absence of diarrhoea or persistent diarrhoea that could be explained by other causes with a negative stool test for C. difficile toxin, while relapse was defined as diarrhoea with a positive stool test for C. difficile toxin. Treatment cure is defined as symptom resolution and a negative Clostridium difficile toxin in stool until the last follow-up (last follow-up was referred to as the last stool collection time point, as shown in FIG. 6). […] CDI recipients FMT8 and FMT9 shared the same donor, and this donor was termed ‘D8’. None of the patients had received antibiotics or proton pump inhibitors after FMT.
1. C. difficile infection was defined as diarrhea (≥3 soft, loose or watery stools per day for at least 2 consecutive days or ≥8 soft or loose stools in 48 hours) and a positive stool test for C. difficile toxin; and
Family members provided donor stool for subjects randomised to FMT arm. Cure after FMT or vancomycin therapy was defined as symptom resolution and negative Clostridium difficile toxin in stool at last follow-up by PCR assay. Relapse was defined as diarrhea with a positive stool test for C. difficile toxin.
In subjects who received FMT, a nasoduodenal tube was inserted with radiology guidance. Donor feces was diluted with 500 ml of sterile saline (0.9%), blended and the supernatant was strained with filter paper and poured in a sterile bottle. Within 6 hours after collection of feces by the donor, the solution was infused through a nasoduodenal tube (2 to 3 minutes per 50 ml). The tube was removed 30 minutes after the infusion, and patients were monitored for 2 hours. In subjects with received FMT, a minimum of 50 g of donor stool was collected on the same day of infusion and used within 6 hours of collection.

[2] = test system: enteric virome (Caudovirales, Microviridae, Anelloviridae); assay: Ultra-deep metagenomic sequencing of virus-like particle (VLP) preparations from stool: enteric virome abundance, diversity, richness, donor-derived contigs; type: in vivo, human
Experimental: VLPs were enriched from pulverised human stool, using a protocol according to previously described methods.^11 17 VLP DNAs were quantified (NanoDrop), and 1 μg of DNA was randomly fragmented by ultrasonication (Covaris) followed by library construction. The qualified libraries were amplified on cBot to generate the cluster on the flow cell (TruSeq PE Cluster Kit V3-cBot-HS, Illumina). The amplified libraries were sequenced paired end on the HiSeq 2000 System (TruSeq SBS KIT-HS V3, Illumina) (BGI, Shenzhen, China; standard 2×150 bp run), generating 20-60 million raw sequences (5-8 G raw data) per sample (sequence statistics in Table 3). Sequence processing and quality control, de novo contig assembly and taxonomy annotation were performed.
To estimate contig abundance and calculate sequence diversity, all reads were aligned to the resulting contigs using Bowtie2 (V. 2.2.9).^18 The mapped sequence counts, contig lengths and total sequence counts were used to normalise the sequence counts and represent the RPKM (reads per kilobase per million) of each sample to the contigs. These values were used to generate an operational taxonomic unit (OTU) relative abundance table, which was annotated with the taxonomy described above. The virome abundance data were imported into R 3.2.3. Richness, diversity and rarefaction calculation were performed using the estimated richness function of the phyloseq package. Diversity and richness plots were generated in GraphPad Prism (V. 6.0). Spearman correlations and their significance were calculated using the cor and cor.test functions in R, respectively. […] Correlation plots were generated using the corrplot R package. Heat maps were generated using the pheatmap R package. LEfSe linear discriminant analysis and multivariate analysis were performed.
To establish the presence of a species or a contig within a sample, the RPKM of a contig or a species is set to be >2 (a stringent criteria), so as to rule out the false-positive finding) for the contig or the species to be assured as present within a sample. In samples after FMT, if a contig or a species was not present in the recipient baseline sample but present in the corresponding donor baseline sample and in the recipient post-FMT sample, the contig or species was defined as ‘donor-derived’; if a contig or a species was not present in the corresponding donor baseline sample but detected both in the recipient baseline sample and in the recipient post-FMT sample, the contig or the species was defined as ‘recipient-exclusive’, if a contig or a species was present across the recipient baseline sample, the recipient post-FMT sample and the corresponding donor baseline sample, the contig or the species was defined as ‘donor recipient coexisted.’ To determine the abundance alteration of Caudovirales species after FMT, the species' relative abundance (RA) fold change was defined as fc=log 2(post-FMT last follow-up RA/pre-FMT baseline RA).
Approximately 200 mg of stool was suspended in 400 μl saline-magnesium buffer (0.1 M NaCl, 0.008 M MgSO4-7H2O, 0.002% gelatin, 0.05 M Tris pH7.5) by vortexing for 10 min. Stool suspensions were then cleared by centrifugation at 2,000×g to remove debris and cells. Clarified suspensions were passed through one […] followed by two […] filters to remove residual host and bacterial cells. […]

SMILES: CN[C@H](CC(C)C)C(=O)N[C@H]1C(=O)N[C@@H](CC(N)=O)C(=O)N[C@H]2C(=O)N[C@H]3C(=O)N[C@H](C(=O)N[C@H](C(=O)O)c4cc(O)cc(O)c4-c4cc3ccc4O)[C@H](O)c3ccc(c(Cl)c3)Oc3cc2cc(c3O[C@@H]2O[C@H](CO)[C@@H](O)[C@H](O)[C@H]2O[C@H]2C[C@](C)(N)[C@H](O)[C@H](C)O2)Oc2ccc(cc2Cl)[C@H]1O [vancomycin]
- subjects cured of CDI (responders) ([1]; median follow-up of 16 weeks, nine FMT subjects, five vancomycin patients): three of the five
- Recurrence at week ([1]; subject STD1): at week 12
- Outcome (till last follow-up) ([1]; subject STD1, severe CDI, follow-up 20 weeks): Recurrence
- Recurrence at week ([1]; subject STD2): at week 7
- Outcome (till last follow-up) ([1]; subject STD2, moderate CDI, follow-up 7 weeks): Recurrence
- Outcome (till last follow-up) ([1]; subject STD3, severe CDI, follow-up 14 weeks): Cured
- Outcome (till last follow-up) ([1]; subject STD4, severe CDI, follow-up 17 weeks): Cured
- Outcome (till last follow-up) ([1]; subject STD5, moderate CDI, follow-up 26 weeks): Cured
- virome structure over time ([2]; CDI subjects who did not respond to vancomycin): marked oscillation
- virome structure over time ([2]; CDI subjects who responded to vancomycin): not significantly altered
- change in Caudovirales abundance after treatment ([2]; stool of CDI subjects, pre- versus post-treatment): increased
- Caudovirales diversity and richness as well as bacterial diversity and richness over the course of treatment ([2]; subjects who did not respond to vancomycin (STD1 and STD2)): substantial fluctuation
- change in Caudovirales diversity or richness ([2]; subjects who responded to vancomycin (STD3, STD4, STD5)): no significant change
